Source: PubChem BioAssay (NCI)
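Assay format: 96-well plates, 48-hour exposure. Here, GI50 denotes the concentration required for 50% inhibition of growth. TGI marks complete inhibition of growth.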 Where a SMILES comes first, the peptide text is derived from it. [ ]: non-standard residue; d: D form. The star is where a group is joined. X28 = COC1=CC(=O)N(C(=O)[C@@H](O*)C(C)C)[C@H]1Cc1ccccc1; Bn2Val = CC(C)[C@@H](C(=O)*)N(Cc1ccccc1)Cc1ccccc1; NMeV = CN[C@H](C(=O)O)C(C)C; dNMeA = CN[C@H](C)C(=O)O

Tests used:
Assay in all cases: NCI anticancer screen, dose series, 48 h
TK-10 renal = system: TK-10 renal
786-0 renal = system: 786-0 renal
RPMI-8226 leukemia = system: RPMI-8226 leukemia
HCT-116 colon = system: HCT-116 colon
SNB-19 CNS = system: SNB-19 CNS
SK-OV-3 ovarian = system: SK-OV-3 ovarian
K-562 leukemia = system: K-562 leukemia
SF-295 CNS = system: SF-295 CNS
T-47D breast = system: T-47D breast
PC-3 prostate = system: PC-3 prostate

| Compound | TGI (TK-10 renal) | TGI (786-0 renal) | TGI (RPMI-8226 leukemia) | TGI (HCT-116 colon) | TGI (SNB-19 CNS) | TGI (SK-OV-3 ovarian) | TGI (K-562 leukemia) | TGI (SF-295 CNS) | TGI (T-47D breast) | TGI (PC-3 prostate) | GI50 (TK-10 renal) | GI50 (RPMI-8226 leukemia) | GI50 (HCT-116 colon) | GI50 (SNB-19 CNS) | GI50 (SK-OV-3 ovarian) | GI50 (K-562 leukemia) | GI50 (SF-295 CNS) | GI50 (T-47D breast) | GI50 (PC-3 prostate) |
| --- | --- | --- | --- | --- | --- | --- | --- | --- | --- | --- | --- | --- | --- | --- | --- | --- | --- | --- | --- |
| COC1=CC(=O)N(C(=O)[C@@H](OC(=O)[C@@H](C)N(C)C(=O)[C@@H]2CCCN2C(=O)[C@H](C(C)C)N(C)C(=O)[C@@H](NC(=O)[C@H](C(C)C)N(Cc2ccccc2)Cc2ccccc2)C(C)C)C(C)C)[C@H]1Cc1ccccc1 (Bn2Val-V[NMeV]P[dNMeA]-X28) | > 100 µM | > 100 µM | > 100 µM | > 100 µM | > 100 µM | > 100 µM | > 100 µM | > 100 µM | > 100 µM | > 100 µM |  |  |  |  |  |  |  |  |  |
| Cn1c(=O)c2c(nc3n2CCC(=O)N3CCCCl)n(C)c1=O | > 100 µM | > 100 µM | > 100 µM | > 100 µM | > 100 µM | > 100 µM | > 100 µM | > 100 µM | > 100 µM | > 100 µM |  |  |  |  |  |  |  |  |  |
| c1ccc(C(c2cccc3c2ccc2ccccc23)C(c2ccccc2)c2cccc3c2ccc2ccccc23)cc1 (centres undefined) | > 100 µM | > 100 µM | > 100 µM | > 100 µM | > 100 µM | > 100 µM | > 100 µM | > 100 µM | > 100 µM | > 100 µM |  |  |  |  |  |  |  |  |  |
| C=CCNc1nc(O)c(/C=C2\C=Nc3ncccc32)s1 | 16.8 µM |  | 6.71 µM | > 100 µM | 7.29 µM | 8.66 µM | > 100 µM | > 100 µM | 7.38 µM |  | 2.18 µM | 2.26 µM | 1.52 µM | 2.32 µM | 2.21 µM | 4.26 µM | 2.5 µM | 2.27 µM |  |
| c1ccc2[nH]c3c(N=NC4=NCCN4)c4ccccc4c-3nc2c1 | 66.6 µM | 22.4 µM |  | 13.4 µM | 68.9 µM |  | > 100 µM | 12.2 µM | > 100 µM |  |  |  |  |  |  |  |  |  |  |
| Cc1ccc(/C(O)=C/c2nc3cccnc3[nH]c2=O)cc1 | > 100 µM | > 100 µM | > 100 µM | > 100 µM | > 100 µM | > 100 µM | > 100 µM | > 100 µM | > 100 µM | > 100 µM |  |  |  |  |  |  |  |  |  |
| CCCCCCCCCCCCCCCCNCC(O)CN (centres undefined) |  |  | 4.52 µM | 3.64 µM | 36 µM | 35.9 µM | 3.35 µM | 6.93 µM |  |  |  |  |  |  |  |  |  |  |  |
| O=C(CNc1nccs1)Nn1cnc2ccc(S(=O)(=O)Nc3nccs3)cc2c1=O | > 100 µM | > 100 µM | > 100 µM | > 100 µM | > 100 µM | > 100 µM | > 100 µM | > 100 µM |  | > 100 µM |  |  |  |  |  |  |  |  |  |
| Cn1cc(-c2nc(-c3c[nH]c4ccncc34)cs2)c2ccccc21 | 3.46 µM |  |  | 3.04 µM |  | 3.23 µM |  | 3.32 µM |  | 2.96 µM | 1.97 µM |  | 1.61 µM |  | 1.59 µM |  | 1.77 µM |  | 1.45 µM |
| Nc1ncnc2c1ncn2CCCC(c1ccccc1)P(=O)(O)O (centres undefined) | > 100 µM | > 100 µM |  | > 100 µM | > 100 µM | > 100 µM |  | > 100 µM |  |  |  |  |  |  |  |  |  |  |  |
